6 compounds from PMC12557367, ““Precision on Two Wheels”–Structural Refinement of ^64Cu- and ^68Ga-Labeled Bicyclic Peptides Targeting Nectin‑4 for Improved Tumor Imaging: From Preclinical Development to First-in-Human Application” (Journal of Medicinal Chemistry, 2025) can be followed below.

Numbered stars: 1 amine (or outer) side, 2 acyl side, 3 side chain; on linkers, the order of the positions; unused ones are H or OH. Bridge positions count the residues as written; N and C are the ends. Square brackets hold non-standard residues; d marks the D form. Peptide text beside a SMILES is read from it. * marks the point of attachment. TATA = O=C(CC[*:1])N1CN(C(=O)CC[*:2])CN(C(=O)CC[*:3])C1; X1 = O=C(O)CN1CCN(CC(=O)O)CCN([C@H](CCC(=O)*)C(=O)O)CC1; 1Nal = N[C@@H](Cc1cccc2ccccc12)C(=O)O; 2Nal = N[C@@H](Cc1ccc2ccccc2c1)C(=O)O; Hyp = O=C(O)[C@@H]1C[C@@H](O)CN1; hArg = N=C(N)NCCCC[C@H](N)C(=O)O; hSer = N[C@@H](CCO)C(=O)O; Nle = CCCC[C@H](N)C(=O)O A value given as a limit tells only on which side of the number the result lay.

Data set [1] deals with T1, recombinant human nectin-4 (Homo sapiens, UniProt Q96NY8).
T1 construct: close to the value determined for the complete extracellular domain of nectin-4 (0.94 nM); purchased R&D Systems 2659-N4
T1 sequence (Q96NY8 32-349 limits assumed): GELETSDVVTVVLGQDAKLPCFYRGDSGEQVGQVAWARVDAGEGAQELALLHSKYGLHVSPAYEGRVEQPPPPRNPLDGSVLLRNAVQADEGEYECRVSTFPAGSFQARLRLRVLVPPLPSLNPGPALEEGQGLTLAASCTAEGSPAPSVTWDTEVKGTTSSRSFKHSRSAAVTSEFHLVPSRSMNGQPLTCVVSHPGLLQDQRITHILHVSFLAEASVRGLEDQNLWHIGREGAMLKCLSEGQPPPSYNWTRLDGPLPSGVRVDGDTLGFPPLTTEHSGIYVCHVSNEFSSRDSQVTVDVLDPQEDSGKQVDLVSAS
As to the kind of experiment: FA-based competitive binding assay with probe 1a. Conditions: for Hill coefficient n: competitive binding curve, variable slope.

The format of data set [2] is in vitro ADME. The following applies: 24 h. The method, then: Human plasma was collected as previously described. For assessing the stability in human plasma, 10 μL (10 MBq) of the labeling solution of [ ^ 64 Cu]-Cu-1e, [ ^ 64 Cu]-Cu-3a, or [ ^ 64 Cu]-Cu-4 were added to 90 μL of human plasma, and the mixture was incubated at 37 °C for up to 24 h. At distinct time points (1, 2, 4, and 24 h), an aliquot of 20 μL was withdrawn and diluted with 60 μL of a mixture named “Supersol” (composition as described above). This was followed by centrifugation at 16,100g for 2 min. The supernatant was analyzed by radio-HPLC (the same system as used for analyzing the ^64Cu-labelings).

Data set [3] is described as follows: Chromatographic hydrophobicity index at immobilized artificial membrane (CHI IAM7.4) by HPLC. The class given is physicochemical. Conditions: nonlabeled peptide, pH 7.4. The method, then:
Consequently, the CHI IAM7.4 values indicate that unfavorable pharmacokinetic behavior due to nonspecific binding is not to be expected.
All commercial reagents and solvents were used without further purification, unless otherwise specified. […] The purity of compound 5, which bears selenomethionine, was lower due to the lability to oxidation (as discussed above). The HPLC-based determination of chromatographic hydrophobicity indices at an immobilized artificial membrane was performed as previously described according to the method developed by Valko et al.

The nature of data set [4]: n-Octanol/PBS distribution coefficient (logD 7.4). The format is physicochemical. The method, then: The determination of logD 7.4 was performed in triplicate. A sample of the ^64Cu/^68Ga-labeled compound containing ≈1 MBq in a volume of 1 μL was added to a 1.5 mL Eppendorf tube containing 400 μL of PBS (pH 7.4) and 400 μL of n-Octanol (the phases were presaturated with each other). The tube was vortexed vigorously for 1 min and then centrifuged at 16,100g for 4 min to separate the phases. For sampling from the aqueous phase, the pipette tip was discharged while passing through the octanol layer. Then, the sample was taken within the aqueous phase. Any residual liquid was carefully removed by moving the tip along the inner wall of an Eppendorf tube. The radioactivity in a defined volume of each layer was measured (ISOMED 2100). The distribution coefficient was expressed as the logarithm of the ratio of counts per minute (cpm) measured in the n-Octanol phase to the cpm measured in the PBS phase.

For data set [5], the system named is HT-1376-derived tumor xenograft model. As to the kind of experiment: Small animal PET/CT imaging. More on the design: species or system mice. Conditions: mouse, in vivo. A digest of the protocol:
(§1)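 NMRI nude mice bore subcutaneous HT-1376 xenografts (5 × 10^6 cells in 50% Matrigel), imaged at ~200 mm^3 tumour volume. Radioligand (molar activity 25 MBq/nmol; ~9 MBq, ≈0.46 nmol) injected i.v. via tail vein, with 75 nmol blocking substance co-injected for blocking; dynamic 2 h PET from injection plus CT for attenuation correction.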

Data set [6] has as its target human serum albumin (HSA) (Homo sapiens, UniProt P02768). The format is in vitro ADME. The text has this:
page 20: S20 Figure S11: Assessment of plasma protein and HSA binding for [64Cu]Cu-1e and [64Cu]Cu-4 by ultrafiltration […] PBS), and undiluted human plasma. B) Plot of “percentage of retained activity in filter” = f([HSA]) for [64Cu]Cu-4 with nonlinear regression according to the Morrison equation ( total […] labeling). For details on the experimental method and regression analysis see ref. 1. PBS HSA Plasma 0% 20% 40% 60% 80% 47 64 50 percentage of retained activity in filter 102 103 104 105 106 107 0 20 40 60 80 100 [HSA] (nM) percentage of retained activity in filter […] A B (1 picture or pasted object on this page, not shown here)

Data set [7] deals with HT-1376 cells. As to the kind of experiment: Saturation binding assay on intact cells. The format is cell-based, human. The following applies: intact HT-1376 cells, ±SD; for Kd: 60 min, PBS wash, apparent. The method, then:
For the saturation binding assay, total and nonspecific binding were determined as described above using 10 different radioligand concentrations ([…]) prepared by serial 1:1 dilution. Plots of “total binding” = f(radioligand) were analyzed by nonlinear regressions using the model of “one site-total, accounting for ligand depletion” as implemented in GraphPad Prism, and Plots of “nonspecific binding” = f(radioligand) were analyzed by linear regressions.

Data set [8] is described as follows: Small animal PET/CT imaging. Further details: species or system mice. Conditions: mouse, in vivo, TAC for heart, two-phase decay. The method, boiled down:
as §1

The nature of data set [9]: Oxidation stability in H2O2 (radio-HPLC).
The target in data set [10] is T2, immobilized human nectin-4 (Homo sapiens, UniProt Q96NY8).
T2 construct: close to the value determined for the complete extracellular domain of nectin-4 (0.94 nM); purchased R&D Systems 2659-N4
T2 sequence (Q96NY8 32-349 limits assumed): T1 sequence (Q96NY8 32-349 limits assumed)
Kind of data set: SPR analysis of binding kinetics. The following applies: ±SEM.
Procedure: For this purpose, recombinant human nectin-4 was covalently immobilized on a CM5 sensor chip by EDC/NHS coupling. For analyses, the buffer composition (HBS-P+, pH 7.4) was similar to that of the FA assay; however, DMSO was completely omitted (1% DMSO for the FA assay).
The SPR analyses were carried out on a Biacore T200 (GE Healthcare, Chicago, IL, USA) at 25 °C using CM5 sensor chips (Cytiva) and HBS-P+ as running buffer (Cytiva) at a flow of 30 μL/min unless otherwise specified and a data collection rate of 10 Hz. All flow cells (FC) were normalized, and functionalization was performed using an amine coupling Kit (Cytiva). […] Binding analyses were performed by a single-cycle kinetic on both FC. Two start-up cycles were performed at the beginning of each experimental set, comprising the injection of bicyclic peptide (50 nM) and analysis on both FC, followed by regeneration. Binding analysis for the bicyclic peptides was performed by consecutive injection of five increasing concentrations (120 s contact time for each concentration), followed by 600 s dissociation time and analysis on both FC. The regeneration was performed by sequential injection of 10 mM NaOAc (pH 5.5) for 60 s, washing the needle using HBS-P+, injection of 10 mM NaOAc (pH 5.5) for 60 s, 600 s waiting, four injections of HBS-P+ (60 s), and a final 600 s waiting for stabilization. Blank runs using only buffer (HBS-P+) instead of the sample were carried out to obtain double-referenced chromatograms. Binding analyses were performed unless otherwise stated in a concentration range between 0.16–100 nM and 1.6–1000 nM (5-fold dilution series) and analyzed in triplicate. The data were analyzed using the Biacore Evaluation software 3.2.1. […] Data were fitted to a 1:1 binding model.

human serum albumin (HSA), sequence (P02768 25-609): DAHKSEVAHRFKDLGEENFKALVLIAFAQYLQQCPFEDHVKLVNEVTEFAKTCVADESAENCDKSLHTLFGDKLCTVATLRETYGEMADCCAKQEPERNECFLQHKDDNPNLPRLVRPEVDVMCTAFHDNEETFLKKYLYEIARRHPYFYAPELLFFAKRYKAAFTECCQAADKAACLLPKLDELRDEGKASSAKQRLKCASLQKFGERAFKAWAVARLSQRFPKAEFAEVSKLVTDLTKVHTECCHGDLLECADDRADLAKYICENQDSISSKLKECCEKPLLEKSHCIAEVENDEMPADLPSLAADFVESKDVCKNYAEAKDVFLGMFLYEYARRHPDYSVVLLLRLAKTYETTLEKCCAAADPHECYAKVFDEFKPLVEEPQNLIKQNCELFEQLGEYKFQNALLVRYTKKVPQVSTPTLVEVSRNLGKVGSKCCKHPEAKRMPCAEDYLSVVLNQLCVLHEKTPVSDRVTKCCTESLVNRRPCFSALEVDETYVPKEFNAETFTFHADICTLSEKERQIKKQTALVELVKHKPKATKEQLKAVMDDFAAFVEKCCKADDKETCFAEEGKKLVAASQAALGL

Turning to `CCCC[C@@H]1NC(=O)[C@@H]2CSCCC(=O)N3CN(CN(C3)C(=O)CCSC[C@H](NC(=O)CC[C@H](C(=O)O)N3CCN(CC(=O)O)CCN(CC(=O)O)CC3)C(=O)N3CCC[C@H]3C(=O)N[C@@H](Cc3cccc4ccccc34)C(=O)N[C@H](CC(=O)O)C(=O)N2)C(=O)CCSC[C@@H](C(N)=O)NC(=O)[C@H](Cc2c[nH]c3ccccc23)NC(=O)[C@@H]2C[C@@H](O)CN2C(=O)[C@@H]2CCCN2C(=O)[C@H]([C@@H](C)O)NC(=O)[C@H](CO)NC(=O)[C@H](Cc2c[nH]c3ccccc23)NC(=O)[C@H](CC(=O)O)NC(=O)[C@H](CCCCNC(=N)N)NC1=O` [3a] (X1-CP[1Nal][dD]C[Nle][hArg]DWSTP[Hyp]WC-NH2; linker 1-5-15 via TATA), in data set [1], the Hill coefficient n is 1.30. For the same compound, in data set [2], the “chemical and proteolytic stability in human plasma” value is reported as “No signs of degradation”. The “CHI IAM7.4” value in data set [3] is listed as 20.6.

In the case of `COCC[C@@H]1NC(=O)[C@@H]2CSCCC(=O)N3CN(CN(C3)C(=O)CCSC[C@H](NC(=O)CC[C@H](C(=O)O)N3CCN(CC(=O)O)CCN(CC(=O)O)CC3)C(=O)N3CCC[C@H]3C(=O)N[C@@H](Cc3cccc4ccccc34)C(=O)N[C@H](CC(=O)O)C(=O)N2)C(=O)CCSC[C@@H](C(N)=O)NC(=O)[C@H](Cc2c[nH]c3ccccc23)NC(=O)[C@@H]2C[C@@H](O)CN2C(=O)[C@@H]2CCCN2C(=O)[C@H]([C@@H](C)O)NC(=O)[C@H](CO)NC(=O)[C@H](Cc2c[nH]c3ccccc23)NC(=O)[C@H](CC(=O)O)NC(=O)[C@H](CCCCNC(=N)N)NC1=O` [[^64Cu]Cu-4] [metal not drawn] (X1-CP[1Nal][dD]C[hSer](Me)[hArg]DWSTP[Hyp]WC-NH2; linker 1-5-15 via TATA), the “logD 7.4” value in data set [4] (pH 7.4) is −2.76. Also, in [5], the “body retention at 2 h p.i.” value is listed as 40–42% and the “time of highest tumor uptake” value amounted to 12.5 min. For the same compound, the “binding to HSA or other plasma proteins” value in [6] was “negligible binding capability”.

In the case of `CSCC[C@@H]1NC(=O)[C@@H]2CSCCC(=O)N3CN(CN(C3)C(=O)CCSC[C@H](NC(=O)CC[C@H](C(=O)O)N3CCN(CC(=O)O)CCN(CC(=O)O)CC3)C(=O)N3CCC[C@H]3C(=O)N[C@@H](Cc3cccc4ccccc34)C(=O)N[C@H](CC(=O)O)C(=O)N2)C(=O)CCSC[C@@H](C(N)=O)NC(=O)[C@H](Cc2c[nH]c3ccccc23)NC(=O)[C@@H]2C[C@@H](O)CN2C(=O)[C@@H]2CCCN2C(=O)[C@H]([C@@H](C)O)NC(=O)[C@H](CO)NC(=O)[C@H](Cc2c[nH]c3ccccc23)NC(=O)[C@H](CC(=O)O)NC(=O)[C@H](CCCCNC(=N)N)NC1=O` [1e], in [1], the Hill coefficient n was 1.52. Besides, the “chemical and proteolytic stability in human plasma” value in data set [2] is recorded as “No signs of degradation”. In addition, the “CHI IAM7.4” value in data set [3] was 19.9. Besides, in data set [7] (^64Cu-labeled ligand), the Kd is 7.15 nM and the “B max (fmol/mg)” value is 780 (±23.9) fmol/mg. For the same compound, in data set [7] (^68Ga-labeled ligand), the Kd is 8.7 nM and the “B max (fmol/mg)” value is 1345 (±52.5) fmol/mg.

For the compound `COCC[C@@H]1NC(=O)[C@@H]2CSCCC(=O)N3CN(CN(C3)C(=O)CCSC[C@H](NC(=O)CC[C@H](C(=O)O)N3CCN(CC(=O)O)CCN(CC(=O)O)CC3)C(=O)N3CCC[C@H]3C(=O)N[C@@H](Cc3cccc4ccccc34)C(=O)N[C@H](CC(=O)O)C(=O)N2)C(=O)CCSC[C@@H](C(N)=O)NC(=O)[C@H](Cc2c[nH]c3ccccc23)NC(=O)[C@@H]2C[C@@H](O)CN2C(=O)[C@@H]2CCCN2C(=O)[C@H]([C@@H](C)O)NC(=O)[C@H](CO)NC(=O)[C@H](Cc2c[nH]c3ccccc23)NC(=O)[C@H](CC(=O)O)NC(=O)[C@H](CCCCNC(=N)N)NC1=O` [[^64Cu]Cu-4, metal not drawn] (X1-CP[1Nal][dD]C[hSer](Me)[hArg]DWSTP[Hyp]WC-NH2; linker 1-5-15 via TATA), the half-life is 1.3 ± 0.17 min in data set [8] (distribution phase, read-out: Blood half life fast); 32 ± 2.09 min in [8] (elimination phase, read-out: Blood half life slow); 412 min in data set [9]. The Kd in [6] (human) was greater than 600000 nM.

Regarding `CSCC[C@@H]1NC(=O)[C@@H]2CSCCC(=O)N3CN(CN(C3)C(=O)CCSC[C@H](NC(=O)CC[C@H](C(=O)O)N3CCN(CC(=O)O)CCN(CC(=O)O)CC3)C(=O)N3CCC[C@H]3C(=O)N[C@@H](Cc3cccc4ccccc34)C(=O)N[C@H](CC(=O)O)C(=O)N2)C(=O)CCSC[C@@H](C(N)=O)NC(=O)[C@H](Cc2c[nH]c3ccccc23)NC(=O)[C@@H]2C[C@@H](O)CN2C(=O)[C@@H]2CCCN2C(=O)[C@H]([C@@H](C)O)NC(=O)[C@H](CO)NC(=O)[C@H](Cc2c[nH]c3ccccc23)NC(=O)[C@H](CC(=O)O)NC(=O)[C@H](CCCCNC(=N)N)NC1=O` [[^64Cu]Cu-1e] [metal not drawn], in [5], the “Percent fast [%]” value amounted to 86.95 ±2.10% and the “time of highest tumor uptake” value is “≈ 6 min”. The “binding to HSA or other plasma proteins” value in data set [6] is “negligible binding capability”.

`CSCC[C@@H]1NC(=O)[C@@H]2CSCCC(=O)N3CN(CN(C3)C(=O)CCSC[C@H](NC(=O)CC[C@H](C(=O)O)N3CCN(CC(=O)O)CCN(CC(=O)O)CC3)C(=O)N3CCC[C@H]3C(=O)N[C@@H](Cc3ccc4ccccc4c3)C(=O)N[C@H](CC(=O)O)C(=O)N2)C(=O)CCSC[C@@H](C(N)=O)NC(=O)[C@H](Cc2c[nH]c3ccccc23)NC(=O)[C@@H]2C[C@@H](O)CN2C(=O)[C@@H]2CCCN2C(=O)[C@H]([C@@H](C)O)NC(=O)[C@H](CO)NC(=O)[C@H](Cc2c[nH]c3ccccc23)NC(=O)[C@H](CC(=O)O)NC(=O)[C@H](CCCNC(=N)N)NC1=O` [8a] (X1-CP[2Nal][dD]CMRDWSTP[Hyp]WC-NH2; linker 1-5-15 via TATA) showed a log distribution coefficient (logD) in [4] (pH 7.4, logD 7.4) of -2.48. In addition, the “fold lower binding affinity compared to 1e” value in [1] (FA K d ratio) worked out at 30 fold. Also, the Hill coefficient n in [1] turned out to be 0.99. In addition, the “CHI IAM7.4” value in [3] stood at 20.3. Also, the kon in data set [10] (HBS-P+ pH 7.4, 25 °C, read-out: k on (SPR, *10^6 M^–1 s^–1)) was 680000 M⁻¹ s⁻¹. In addition, in data set [10] (pH 7.4, HBS-P+ pH 7.4, 25 °C, read-out: k off (SPR, *10^–3 s^–1)), the koff worked out at 0.0433 s⁻¹. Moreover, the Kd in data set [7] (^64Cu-labeled ligand) was 51.7 nM.
